Among the data in patent publication US20240239775A1, “FXR REGULATOR, PREPARATION METHOD THEREFOR, PHARMACEUTICAL COMPOSITION THEREOF AND USE THEREOF” (QINGDAO RUIJI MEDICAL TECHNOLOGY CO., LTD., priority 2021, published 2024) are IC50 and melting point values, retold here.

The target of one data set is T1, FXR (Homo sapiens, UniProt Q96RI1).
T1 construct: 5 μL of 20 nM FXR-LBD Complete Coregulator buffer G; purchased ThermoFisher PV4833
T1 sequence (Q96RI1 262-486 limits assumed): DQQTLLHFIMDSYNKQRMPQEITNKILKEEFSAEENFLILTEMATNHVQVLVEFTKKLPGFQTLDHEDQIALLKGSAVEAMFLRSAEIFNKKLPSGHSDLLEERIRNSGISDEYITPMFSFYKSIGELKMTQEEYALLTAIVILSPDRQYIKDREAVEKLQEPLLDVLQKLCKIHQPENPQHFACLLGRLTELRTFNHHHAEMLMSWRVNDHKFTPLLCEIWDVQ
Put plainly: FXR antagonist screening by TR-FRET (LanthaScreen TR-FRET FXR co-activation assay kit). As to conditions: Table 1.1, FXR antagonistic activity; TR-FRET with CDCA; geometric means of at least two independent runs. The format is biochemical. A digest of the protocol:
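FXR-LBD (20 nM working solution) mixed with compound, CDCA (200 μM working solution) as agonist, Fluorescein-SRC2-2 and Tb-anti-GST antibody in Coregulator buffer G; 10 h at room temperature. Coactivator recruitment read by TR-FRET, triplicate wells.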
Background: In TR-FRET formats the signal depends on donor and acceptor labels being close together.

One may read the IC50 as the midpoint of a concentration-inhibition curve. For orientation: melting point means the temperature, or range, at which the solid turns liquid. With `Cc1c(C(=O)O)oc2ccc(S(=O)(=O)N(CCc3ccccc3)Cc3c(Cl)cccc3Cl)cc12` [Example F27-S49, 3-methyl-5-(N-(2,6-dichlorobenzyl)-N-phenethylsulfamoyl)benzofuran-2-carboxylic acid], the melting point lay in the range of 176 to 177 °C. This compound had a half-maximal inhibitory concentration (IC50) on FXR of 0.1 to 10 µM.
For `Cc1cccc(C)c1CN(CCc1ccccc1)S(=O)(=O)c1ccc2oc(C(=O)O)c(C)c2c1` [Example F27-S50, 3-methyl-5-(N-(2,6-dimethylbenzyl)-N-phenethylsulfamoyl)benzofuran-2-carboxylic acid], in that order: 211 to 212 °C and 0.1 to 10 µM.
Regarding `Cc1c(C(=O)O)oc2ccc(S(=O)(=O)N(CCc3ccccc3)Cc3ccc(F)cc3F)cc12` [Example F27-S51, 3-methyl-5-(N-(2,4-difluorobenzyl)-N-phenethylsulfamoyl)benzofuran-2-carboxylic acid], the melting point is 155 to 156 °C. At FXR, the IC50 lay within 10 to 50 µM.
For `Cc1c(C(=O)O)oc2ccc(S(=O)(=O)N(CCc3ccccc3)Cc3ccc(Cl)cc3F)cc12` [Example F27-S52, 3-methyl-5-(N-(2-fluoro-4-chlorobenzyl)-N-phenethylsulfamoyl)benzofuran-2-carboxylic acid], the melting point was > 380 °C (dec.). Further, the IC50 against FXR lay within 10 to 50 µM.
Take `Cc1c(C(=O)O)oc2ccc(S(=O)(=O)N(CCc3ccccc3)Cc3ccc(Br)cc3F)cc12` [Example F27-S53, 3-methyl-5-(N-(2-fluoro-4-bromobenzyl)-N-phenethylsulfamoyl)benzofuran-2-carboxylic acid]: the melting point is > 380 °C (dec.). Further, the 50% inhibitory concentration (IC50) against FXR is 10 to 50 µM.
`Cc1c(C(=O)O)oc2ccc(S(=O)(=O)N(CCc3ccccc3)Cc3ccc(C(F)(F)F)cc3F)cc12` [Example F27-S55, 3-methyl-5-(N-(2-fluoro-4-(trifluoromethyl)benzyl)-N-phenethylsulfamoyl)benzofuran-2-carboxylic acid] displayed a melting point of 174 to 175 °C. In addition, the IC50 on FXR lay within 50 to 100 µM.
For `Cc1c(C(=O)O)oc2ccc(S(=O)(=O)N(CCc3ccccc3)Cc3ccc(F)cc3Cl)cc12` [Example F27-S56, 3-methyl-5-(N-(2-chloro-4-fluorobenzyl)-N-phenethylsulfamoyl)benzofuran-2-carboxylic acid], in that order: 145 to 146 °C and 10 to 50 µM.
As for `Cc1c(C(=O)O)oc2ccc(S(=O)(=O)N(CCc3ccccc3)Cc3ccc(F)cc3C(F)(F)F)cc12` [Example F27-S57, 3-methyl-5-(N-(2-(trifluoromethyl)-4-fluorobenzyl)-N-phenethylsulfamoyl)benzofuran-2-carboxylic acid], the melting point was 156 to 157 °C. The IC50 against FXR was in the range of 10 to 50 µM.
For `Cc1c(C(=O)O)oc2ccc(S(=O)(=O)N(CCc3ccccc3)Cc3ccc(C(F)(F)F)cc3C(F)(F)F)cc12` [Example F27-S58, 3-methyl-5-(N-(2,4-bis(trifluoromethyl)benzyl)-N-phenethylsulfamoyl)benzofuran-2-carboxylic acid], in that order: 155 to 156 °C and 50 to 100 µM.
The corresponding values for `Cc1c(C(=O)O)oc2ccc(S(=O)(=O)N(CCc3ccccc3)Cc3ccc(Br)cc3C(F)(F)F)cc12` [Example F27-S59, 3-methyl-5-(N-(2-(trifluoromethyl)-4-bromobenzyl)-N-phenethylsulfamoyl)benzofuran-2-carboxylic acid] are 150 to 151 °C and 50 to 100 µM.
The corresponding values for `Cc1c(C(=O)O)oc2ccc(S(=O)(=O)N(CCc3ccccc3)Cc3ccc(Cl)cc3Cl)cc12` [Example F27-S60, 3-methyl-5-(N-(2,4-dichlorobenzyl)-N-phenethylsulfamoyl)benzofuran-2-carboxylic acid] are 177 to 178 °C and 10 to 50 µM.
For the compound `Cc1ccc(F)cc1CN(CCc1ccccc1)S(=O)(=O)c1ccc2oc(C(=O)O)c(C)c2c1` [Example F27-S61, 3-methyl-5-(N-(2-methyl-5-fluorobenzyl)-N-phenethylsulfamoyl)benzofuran-2-carboxylic acid], the melting point was > 380 °C (dec.). The IC50 against FXR lay in the range of 10 to 50 µM.
The corresponding values for `Cc1c(C(=O)O)oc2ccc(S(=O)(=O)N(CCc3ccccc3)Cc3c(F)cc(Cl)cc3F)cc12` [Example F27-S62, 3-methyl-5-(N-(2,6-difluoro-4-chlorobenzyl)-N-phenethylsulfamoyl)benzofuran-2-carboxylic acid] are > 380 °C (dec.) and 10 to 50 µM.
The corresponding values for `Cc1c(C(=O)O)oc2ccc(S(=O)(=O)N(CCc3ccccc3)c3ccc(N4CCOCC4)cc3)cc12` [Example F27-S63, 3-methyl-5-(N-(4-morpholinophenyl)-N-phenethylsulfamoyl)benzofuran-2-carboxyli acid] are > 380 °C (dec.) and 50 to 100 µM.
The corresponding values for `Cc1c(C(=O)O)oc2ccc(S(=O)(=O)N(CCc3ccccc3)c3ccc(N4CCN(C)CC4)cc3)cc12` [Example F27-S64, 3-methyl-5-(N-(4-(4-methylpiperazin-1-yl)phenyl)-N-phenethylsulfamoyl)benzofuran-2-carboxylic acid] are 152 to 153 °C and 50 to 100 µM.
With `Cc1c(C(=O)O)oc2ccc(S(=O)(=O)N(CCc3ccccc3)c3ccc(N4CCN(C(=O)OC(C)(C)C)CC4)cc3)cc12` [Example F27-S65, 3-methyl-5-(N-(4-(4-(tert-butoxycarbonyl)piperazin-1-yl)phenyl)-N-phenethylsulfamoyl)benzofuran-2-carboxylic acid], the melting point is > 380 °C (dec.). At FXR, this compound registered an IC50 of 10 to 50 µM.
The corresponding values for `Cc1c(C(=O)O)oc2ccc(S(=O)(=O)N(CCc3ccccc3)c3ccc(N4CCN(C(=O)CC(C)(C)C)CC4)cc3)cc12` [Example F27-S66, 3-methyl-5-(N-(4-(4-(3,3-dimethylbutyryl)piperazin-1-yl)phenyl)-N-phenethylsulfamoyl)benzofuran-2-carboxylic acid] are > 380 °C (dec.) and 10 to 50 µM.
The corresponding values for `CCCOC(=O)N1CCN(c2ccc(N(CCc3ccccc3)S(=O)(=O)c3ccc4oc(C(=O)O)c(C)c4c3)cc2)CC1` [Example F27-S67, 3-methyl-5-(N-(4-(4-(propoxycarbonyl)piperazin-1-yl)phenyl)-N-phenethylsulfamoyl)benzofuran-2-carboxylic acid] are > 380 °C (dec.) and 10 to 50 µM.
For `CC(=O)N1CCN(c2ccc(N(CCc3ccccc3)S(=O)(=O)c3ccc4oc(C(=O)O)c(C)c4c3)cc2)CC1` [Example F27-S68, 3-methyl-5-(N-(4-(4-acetylpiperazin-1-yl)phenyl)-N-phenethylsulfamoyl)benzofuran-2-carboxylic acid], the melting point was in the range of 183 to 184 °C. The IC50 against FXR fell in the range of 50 to 100 µM.
The corresponding values for `Cc1c(C(=O)O)oc2ccc(S(=O)(=O)N(CCc3ccccc3)c3ccc(N4CCN(C(=O)c5ccccc5)CC4)cc3)cc12` [Example F27-S69, 3-methyl-5-(N-(4-(4-benzoylpiperazin-1-yl)phenyl)-N-phenethylsulfamoyl)benzofuran-2-carboxylic acid] are > 380 °C (dec.) and 10 to 50 µM.
The corresponding values for `Cc1c(C(=O)O)oc2ccc(S(=O)(=O)N(CCc3ccccc3)c3ccc(N4CCN(Cc5ccccc5)CC4)cc3)cc12` [Example F27-S70, 3-methyl-5-(N-(4-(4-benzylpiperazin-1-yl)phenyl)-N-phenethylsulfamoyl)benzofuran-2-carboxylic acid] are > 380 °C (dec.) and 10 to 50 µM.
For `Cc1c(C(=O)O)oc2ccc(S(=O)(=O)N(CCc3ccccc3)c3ccc(N4CCN(C(=O)N(C)C)CC4)cc3)cc12` [Example F27-S71, 3-methyl-5-(N-(4-(4-(dimethylcarbamoyl)piperazin-1-yl)phenyl)-N-phenethylsulfamoyl)benzofuran-2-carboxylic acid], in that order: 192 to 193 °C and 50 to 100 µM.
With `Cc1c(C(=O)O)oc2ccc(S(=O)(=O)N(CCc3ccccc3)c3ccc(C4CCN(C(=O)OC(C)(C)C)CC4)cc3)cc12` [Example F27-S73, 3-methyl-5-(N-(4-(1-(tert-butoxycarbonyl)piperidin-4-yl)phenyl)-N-phenethylsulfamoyl)benzofuran-2-carboxylic acid], the melting point was > 380 °C (dec.). This compound came in with an IC50 on FXR of 0.1 to 10 µM.
For `Cc1c(C(=O)O)oc2ccc(S(=O)(=O)N(CCc3ccccc3)c3ccc(N4CCN(C(=O)OC(C)(C)C)CC4)c(C(F)(F)F)c3)cc12` [Example F27-S74, 3-methyl-5-(N-(4-(4-(tert-butoxycarbonyl)piperazin-1-yl)-3-(trifluoromethyl)phenyl)-N-phenethylsulfamoyl)benzofuran-2-carboxylic acid], in that order: 215 to 216 °C and 0.1 to 10 µM.
For `Cc1c(C(=O)O)oc2ccc(S(=O)(=O)N(CCc3ccccc3)c3ccc(N4CCN(C(=O)OC(C)(C)C)CC4)nc3)cc12` [Example F27-S75, 3-methyl-5-(N-(6-(4-(tert-butoxycarbonyl)piperazin-1-yl)pyridin-3-yl)-N-phenethylsulfamoyl)benzofuran-2-carboxylic acid], in that order: > 380 °C (dec.) and 10 to 50 µM.
